Assay [1] deals with BV-173 cells. The assay can be described thus: Western blot analysis in BV-173 cells. In kind it is cell-based, human. The procedure: BV-173 cells (BCR-ABL positive leukemic cells) were used as control cells left (Ctl) or with 1 μM MARB1, 2 μM MARB2 or 2 mM VPA treated for 24 h. These concentrations were chosen to achieve equipotent effects on cells which was in preliminary tests (data not shown). Shown are acetylated tubulin-α, α-tubulin, acetylated histone H3, WT1, survivin and β-actin. The total amount of α-tubulin and β-actin were used as loading control. Mr, relative molecular weight in kilodaltons. The degradation of WT1 in patients treated with VPA cells bases on a loss of WT1 mRNA and the increased degradation of WT1 protein by induction of the E2 ubiquitin conjugase UbcH8.
(§1) Flow cytometric analysis of the induction of (A) apoptotic DNA fragmentation and (B) Cell cycle analysis of BV 173 cells. The cells were kept as control cells (Ctl), treated with 1 μM or 2 μM MARB1 MARB2 and 0.2 or 0.5 μM imatinib for 48 h. The data was received by two independent experiments. The individual compounds show only slight effects in the used concentrations; whereas their combination can effectively kill leukemic cells. (C) Western blot analysis on data from the BCR-ABL, acetylated tubulin and α-sliced PARP1; the total amount of tubulin-α serves as a loading control. BV-173 cells were treated for 24 h with 1 μM, or 2 μM MARB1 or MARB2.
(§2) Human leukemia cell lines BV 173 and K562 with BCR-ABL mutation (Leibniz Institute DSMZ—German Collection of Microorganisms and Cell Cultures, DSMZ Accession Nos: ACC-20 and ACC-10).
The assay is carried out as described in Buchwald et al. 2010 and Buchwald et al. 2013. Briefly, cells were collected and lysed in NET-N buffer (150 mM NaCl, 1 mM EDTA, 50 mM Tris-HCl (pH 7.8), 0.5% Nonidet P-40 (NP-40), 1 mM phenylmethylsulfonyl fluoride, 0.5 mg/ml leupeptin and 0.5 mg/ml pepstatin) followed by mild sonification on ice. Protein lysate ([…]) was boiled in Laemmli buffer and separated on SDS-polyacrylamide gel electrophoresis for western blotting with specific antibodies. All lysates were assessed by Bradford assay for protein concentrations.
Background: A western blot detects proteins with antibodies after separation by electrophoresis.

The test system of assay [2] is MV4-11, BV173 and HCT116 cells. The assay can be described thus: Dose and time dependency of MARB1, Western blot method b. The settings on record: 50 nM. Format: cell-based, human. The procedure:
Cells were seeded on a 6 well plate and incubated as shown. The blots were quantified with Image Studio Lite Version 5.0. (A) 1 Mio cells per sample were seeded and after 2 h adaption time the cells were stimulated as shown, followed by incubation and harvesting of the cells. Tubulin and HSP90 were used as loading control. […] HSP90 and Tubulin were used as loading control. n=1 (C) 200,000 cells were seeded in a 6 well plate and incubated over night for adhesion. B-Actin was used as loading control. n=1
For the examination of the time dependency of MARB1 MV4-11, BV173 and HCT116 cells were tested by western blot. All cells were seeded on a 6 well plate. The blots were quantified with Image Studio Lite Version 5.0. (A) 1 Mio cells per sample were seeded and after 2 h adaption time the cells were stimulated as shown. Following the incubation, the cells were harvested as described earlier. Tubulin and HSP90 were used as loading control. […] HSP90 was used as loading control. […]
Western Blot analysis method b was used for the blots illustrated in FIGS. 6 to 9 and 11: Equal amounts of proteins were separated with a sodium dodecyl sulfate-polyacrylamide gel electrophoresis (SDS-PAGE) using an electrophoresis buffer by Laemmli with 1% SDS. […] Fluorescence coupled secondary antibodies (LI-COR) were used and the signal was measured on the Odyssey to detect the proteins.

The subject of assay [3] is PRXF PC-3M. The assay can be described thus: In vitro activity against solid tumor cell lines (FACS analysis method a). Format: cell-based. The conditions noted are these: Homo sapiens, Prostate. The protocol: (§3) Human prostate cancer cell lines PRXF DU-145, PRXF LNCaP, PRXF PC-3M (Oncotest GmbH, Freiburg, Germany)
(§4) The assay is carried out as described in Pietschmann et al., 2012 and Brandl et al. 2012. Briefly, 10^5 cells were fixed in 1 ml 70% EtOH with 0.05% Tween-20 overnight at 4° C. The following day, cells were washed with 3 ml 38 mM sodium citrate, pH 7.4, and incubated for 20 min at 37° C. in 0.5 ml 38 mM sodium citrate, pH 7.4, supplemented with 50 μg/ml propidium iodide and 10 μg/ml RNase-A. DNA contents of the cells were measured by fluorescence-activated cell sorter (FACS). This method allows detection of the apoptotic subG1-fraction, which has a DNA content below 2n due to apoptotic cleavage of DNA. Equally, the cell cycle profile can be assessed with this method.
(§5) The novel HDAC6 inhibitors were tested in a panel of tumor cell lines for cytostatic/toxic activities (see Table 2).
A general note: A flow cytometer gives signals particle by particle.

For assay [4], the system named is PRXF LNCaP. Described as above. The settings on record: Homo sapiens, Prostate. Format: cell-based. The protocol:
as §3, §4, §5

Assay [5] relates to PRXF DU-145. The assay is described as above. Format: cell-based. The settings on record: Homo sapiens, Prostate. The procedure: as §3, §4, §5
For assay [6], the system named is BV-173 cells. The assay can be described thus: Flow cytometric analysis of BV-173 cells, combination with imatinib. The conditions noted are these: BV-173, 1 μM MARB1 or 2 μM MARB2 combined with 0.2 or 0.5 μM imatinib, 48 h. Format: cell-based, human. The protocol:
as §1, §2
The assay is carried out as described in Pietschmann et al., 2012 and Brandl et al. 2012. Briefly, 10^5 cells were fixed in 1 ml 70% EtOH with 0.05% Tween-20 overnight at 4° C. The following day, cells were washed with 3 ml 38 mM sodium citrate, pH 7.4, and incubated for 20 min at 37° C. in 0.5 ml 38 mM sodium citrate, pH 7.4, supplemented with 50 μg/ml propidium iodide and 10 μg/ml RNase-A. DNA contents of the cells were measured by fluorescence-activated cell sorter (FACS). […] Equally, the cell cycle profile can be assessed with this method.

Assay [7] has as its system 42 solid tumor cell lines. The assay can be described thus: In vitro activity against solid tumor cell lines, mean of all lines. In kind it is cell-based. The settings on record: average IC50 value from all 42 measurements.
The mark [8] stands for this setting: BV-173, 1 μM MARB1, 2 μM MARB2, 24 h.

Entries after “also recorded” stand apart in the source; their conditions may differ.

Take `CN1C(=O)C2CN(Cc3c2c2ccccc2n3Cc2ccc(C(=O)NO)cc2)C1=O` (stereo not drawn) [MARB1, N-Hydroxy-4-((4-methyl-3,5-dioxo-3,4,5,6-tetrahydro-2,6-methano[1,3]diazocino[5,6-b]indol-11(1H)-yl)methyl)benzamide]: the “acetylation of tubulin-α” value in assay [1] (setting [8]) was “hyperacetylation of tubulin-α”. Besides, the expression of survivin result in assay [1] (setting [8]) is given as “reduction of the expression of survivin”. The “acetylation of histone H3” value in assay [1] (BV-173, 1 μM MARB1, 2 μM MARB2 or 2 mM VPA, 24 h) is recorded as “Neither MARB1, nor MARB2 cause these alterations”. Besides, the “BCR-ABL expression on the protein level” value in assay [1] (BV-173, compound alone, 24 h) was “do not affect”. In addition, the “BCR-ABL stabilization/degradation in combination with imatinib” value in assay [1] (BV-173, with imatinib, 24 h) is “significantly inhibit the unwanted stabilization of BCR-ABL; also recorded: significant degradation of BCR-ABL”. In assay [2] (incubation for 30 min), the acetylated tubulin entry is on record as “increase of acetylated tubulin is detectable”. Besides, in assay [2] (short time course), the “inhibition compared with Tubastatin A” value is “faster and at later time points much more effective than Tubastatin A”. For the same molecule, the IC50 (commonly the midpoint of a concentration-inhibition curve) in assay [3] is 5.14 µM; in assay [4], 1.62 µM; in assay [5] it was 2.34 µM; in assay [7], 5.03 µM. Besides, the “apoptotic and necrotic sub-G1 populations” value in assay [6] was “significantly increases”.

Values taken from US10106540B2, “HDAC6 inhibitors and their uses” (Universität Regensburg, priority 2014, dated 2018).
